How the values were obtained:
Colo205 cell line = experiment: Colo205 cell proliferation assay (MTT assay, WST-8); format: cell-based; details: Homo sapiens, COLO 205; 72 hours incubation; read-out: Colo 205 Cell Activity (IC50 of growth inhibition in Colo 205 cells)
Method: Compounds disclosed herein were tested for the inhibition of ERK2 by a Colo205 cell proliferation assay commonly known as MTT assay. In this assay, a complete media was prepared by adding 10% fetal bovine serum to RPMI-1640 medium (Life technology). Colon cancer cells (Colo205 cell line) were added to each of 88 wells of a 96 well plate at a seeding density of 5,000 cells/well/90 μL. The cells were allowed to attach to the plate by incubating at 37° C. for 24 hours. The compound was dissolved in DMSO (SIGMA). A solution of test compound was prepared in complete media by serial dilution to obtain the following concentrations: 500 μM, 150 μM, 50 μM, 15 μM, 5 μM, 1.5 μM, 0.5 μM, 0.15 μM and 0.05 μM. The test compound solution (10 μL) was added to each of 80 cell-containing wells. The final concentrations of the compound were following: 50 μM, 15 μM, 5 μM, 1.5 μM, 0.5 μM, 0.15 μM, 0.05 μM, 0.015 μM and 0.005 μM. The final concentration of DMSO is 0.5%. To the 8 remaining cell-containing wells, only complete media (containing 0.5% DMSO) was added to form a control group in order to measure maximal proliferation. To the remaining 8 empty wells, complete media was added to for a vehicle control group in order to measure background. The plates were incubated at 37° C. for 72 hours. 10 μL WST-8 solution (DOJINDO, Cell Counting KIT-8) was added to each well. The plates were further incubated at 37° C. for 2 hours, and then read for the absorbance using a microplate reader at 450 nm.
The IC50 values of growth inhibition in Colo 205 cells for compounds disclosed are listed in Table 3, A′: ≤0.5 μM; B′: >0.5 μM and ≤1 μM; C′: >1.0 μM and ≤5 uM; D′: >5 μM.

human ERK2 = biological target: T1, human ERK2 (Homo sapiens, UniProt P28482); experiment: LanthaScreen TR-FRET ERK2 enzymatic assay; details: 5 μM ATP, one hour reaction; read-out: ERK2 Biochemical Activity (IC50 of ERK2 inhibition)
T1 construct: recombinantly expressed as GST-tagged full-length protein purified from E. coli; GST; purchased Invitrogen PV3311; host or cells: E. coli
T1 sequence (P28482 whole entry): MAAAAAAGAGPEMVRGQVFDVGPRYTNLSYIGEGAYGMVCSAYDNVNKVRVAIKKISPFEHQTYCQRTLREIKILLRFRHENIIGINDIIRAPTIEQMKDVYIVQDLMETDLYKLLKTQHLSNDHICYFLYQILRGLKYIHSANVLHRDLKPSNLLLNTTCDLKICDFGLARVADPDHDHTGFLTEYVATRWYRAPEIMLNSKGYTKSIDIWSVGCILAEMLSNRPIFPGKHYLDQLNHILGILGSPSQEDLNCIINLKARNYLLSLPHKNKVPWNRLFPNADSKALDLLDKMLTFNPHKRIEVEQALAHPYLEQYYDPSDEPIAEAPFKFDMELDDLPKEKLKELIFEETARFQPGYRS
Method: Compounds were tested in a LanthaScreen™ time-resolved fluorescence energy transfer (TR-FRET) enzymatic assay from Invitrogen. The assay used human ERK2 (Mitogen Activated Kinase 1, Invitrogen, Cat. PV3311) recombinantly expressed as GST-tagged full-length protein purified from E. coli and activated in vitro with MAP2K1. The substrate was a recombinant truncated version (residues 19-96) of ATF2 fused with Green Fluorescent Protein (Invitrogen, Cat. PV4445). Test compounds were prepared and diluted in DMSO in 3-fold serial dilutions to 100× of the final testing concentrations. The compounds were then further diluted to 4× by the kinase reaction buffer (Invitrogen, Cat. PV3189). The enzymatic reaction for compound testing was performed in a white 384-well polypropylene plate (Packard, Cat. 6005214) with a total reaction volume of 10 μl containing 20 ng/ml ERK2, 400 nM substrate, and 5 μM ATP that is around its Km. The assay started with loading 2.5 μl of ERK2 diluted in kinase reaction buffer to wells, followed by addition of equal volume of 4× compounds for 15-min incubation at the room temperature for pre-treatment. The enzymatic reaction was initiated by addition of 5 μl of mixture of the substrate and ATP prepared in kinase reaction buffer. After one hour reaction, 10 μl mixture of EDTA (final 10 mM) and terbium-labeled anti-pATF2 (pThr71) antibody (final 2 nM) (Invitrogen, Cat. PV4451) prepared in TR-FRET antibody dilution buffer (Invitrogen, Cat. PV3574) was added to stop the enzymatic reaction and produce TR-FRET signals. After 30 minutes of incubation at room temperature, the plate was read in Tecan Infinite F200 Pro with the following settings: Excitation 340 nm (30)/Emission1 495 nm (10)/Emission2 520 nm (25). The TR-FRET values were dimensionless numbers that were calculated as the ratio of the acceptor ([…]) signal to the donor (Terbium) signal. Percent of control was calculated as the percentage of compound-treated vs 1% DMSO vehicle-treated. The dose-response curves were generated and the IC50s were calculated by nonlinear sigmoid curve fitting using GraphPad Prism.
The IC50 values of ERK2 inhibition for compounds disclosed are listed in Table 3, A: ≤10 nM; B: >10 nM and ≤100 nM; C: >100 nM and ≤1 uM; D: >1 μM.

In the case of `Cn1nccc1Nc1nccc(-c2cc3c(s2)C(C)(C)N(Cc2nc(C(F)(F)F)cs2)C3=O)n1` [Example 5, 6,6-dimethyl-2-(2-((1-methyl-1H-pyrazol-5-yl)amino)pyrimidin-4-yl)-5-((4-(trifluoromethyl)thiazol-2-yl)methyl)-5,6-dihydro-4H-thieno[2,3-c]pyrrol-4-one], the IC50 (Colo205 cell line) is reported as ≤ 500 nM and the IC50 (human ERK2) is reported as ≤ 10 nM.

`CC(c1cccc(C(F)(F)F)n1)N1C(=O)c2cc(-c3ccnc(Nc4ccnn4C)n3)sc2C1(C)C` (stereo not shown) [Example 12, 6,6-dimethyl-2-(2-((1-methyl-1H-pyrazol-5-yl)amino)pyrimidin-4-yl)-5-(1-(6-(trifluoromethyl)pyridin-2-yl)ethyl)-5,6-dihydro-4H-thieno[2,3-c]pyrrol-4-one] showed an IC50 (Colo205 cell line) of 1000 to 5000 nM.

`Cn1nccc1Nc1nccc(-c2cc3c(s2)C(C)(C)N(Cc2cccc(C(F)(F)F)n2)C3=O)n1` [Example 3, 6,6-dimethyl-2-(2-((1-methyl-1H-pyrazol-5-yl)amino)pyrimidin-4-yl)-5-((6-(trifluoromethyl)pyridin-2-yl)methyl)-5,6-dihydro-4H-thieno[2,3-c]pyrrol-4-one] was tested, and the IC50 (Colo205 cell line) was ≤ 500 nM and the IC50 (human ERK2) was ≤ 10 nM.

In the case of `Cn1nccc1Nc1nccc(-c2cc3c(s2)C(C)(C)N(Cc2ccnc(C(F)(F)F)c2)C3=O)n1` [Example 1, 6,6-dimethyl-2-(2-(1-methyl-1H-pyrazol-5-ylamino)pyrimidin-4-yl)-5-((2-(trifluoromethyl)pyridin-4-yl)methyl)-5,6-dihydro-4H-thieno[2,3-c]pyrrol-4-one], the IC50 (Colo205 cell line) is reported as ≤ 500 nM and the IC50 (human ERK2) is reported as ≤ 10 nM.

With `Cn1nccc1Nc1nccc(-c2cc3c(s2)C(C)(C)N(CC(=O)N[C@H](CO)c2cccc(Cl)c2)C3=O)n1` [Example 14, (S)—N-(1-(3-chlorophenyl)-2-hydroxyethyl)-2-(6,6-dimethyl-2-(2-((1-methyl-1H-pyrazol-5-yl)amino)pyrimidin-4-yl)-4-oxo-4H-thieno[2,3-c]pyrrol-5(6H)-yl)acetamide] the IC50 (Colo205 cell line) was ≤ 500 nM and the IC50 (human ERK2) was ≤ 10 nM.

`Cn1nccc1Nc1nccc(-c2cc3c(s2)C(C)(C)N(CC(=O)NCc2ccnc(C(F)(F)F)c2)C3=O)n1` [Example 16, 2-(6,6-dimethyl-2-(2-((1-methyl-1H-pyrazol-5-yl)amino)pyrimidin-4-yl)-4-oxo-4H-thieno[2,3-c]pyrrol-5(6H)-yl)-N-((2-(trifluoromethyl)pyridin-4-yl)methyl)acetamide] showed an IC50 (Colo205 cell line) of 1000 to 5000 nM.

In the case of `Cn1nccc1Nc1nccc(-c2cc3c(s2)C(C)(C)N(CCc2ccnc(C(F)(F)F)c2)C3=O)n1` [Example 8, 6,6-dimethyl-2-(2-((1-methyl-1H-pyrazol-5-yl)amino)pyrimidin-4-yl)-5-(2-(2-(trifluoromethyl)pyridin-4-yl)ethyl)-5,6-dihydro-4H-thieno[2,3-c]pyrrol-4-one], the IC50 (Colo205 cell line) is reported as 1000 to 5000 nM.

In the case of `Cn1nccc1Nc1nccc(-c2cc3c(s2)C(C)(C)N(Cc2ccnc(C(F)(F)F)n2)C3=O)n1` [Example 6, 6,6-dimethyl-2-(2-((1-methyl-1H-pyrazol-5-yl)amino)pyrimidin-4-yl)-5-((2-(trifluoromethyl)pyrimidin-4-yl)methyl)-5,6-dihydro-4H-thieno[2,3-c]pyrrol-4-one], the IC50 (Colo205 cell line) is reported as ≤ 500 nM and the IC50 (human ERK2) is reported as ≤ 10 nM.

For `CC(c1ccnc(C(F)(F)F)n1)N1C(=O)c2cc(-c3ccnc(Nc4ccnn4C)n3)sc2C1(C)C` (stereo not shown) [Example 13, 6,6-dimethyl-2-(2-((1-methyl-1H-pyrazol-5-yl)amino)pyrimidin-4-yl)-5-(1-(2-(trifluoromethyl)pyrimidin-4-yl)ethyl)-5,6-dihydro-4H-thieno[2,3-c]pyrrol-4-one], the IC50 (Colo205 cell line) was ≤ 500 nM and the IC50 (human ERK2) was 10 to 100 nM.

In the case of `Cn1nccc1Nc1nccc(-c2cc3c(s2)C(C)(C)N([C@H](CO)c2cccc(Cl)c2)C3=O)n1` [Example 11, (S)-5-(1-(3-chlorophenyl)-2-hydroxyethyl)-6,6-dimethyl-2-(2-((1-methyl-1H-pyrazol-5-yl)amino)pyrimidin-4-yl)-5,6-dihydro-4H-thieno[2,3-c]pyrrol-4-one], the IC50 (Colo205 cell line) is reported as ≤ 500 nM.

`Cn1nccc1Nc1nccc(-c2cc3c(s2)C(C)(C)N(CCN[C@H](CO)c2cccc(Cl)c2)C3=O)n1` [Example 17, (S)-5-(2-((1-(3-chlorophenyl)-2-hydroxyethyl)amino)ethyl)-6,6-dimethyl-2-(2-((1-methyl-1H-pyrazol-5-yl)amino)pyrimidin-4-yl)-5,6-dihydro-4H-thieno[2,3-c]pyrrol-4-one] was tested, and the IC50 (Colo205 cell line) was 500 to 1000 nM.

In the case of `Cn1nccc1Nc1nccc(-c2cc3c(s2)C(C)(C)N(Cc2cccc(Cl)c2)C3=O)n1` [Example 2, 5-(3-chlorobenzyl)-6,6-dimethyl-2-(2-(1-methyl-1H-pyrazol-5-ylamino)pyrimidin-4-yl)-5,6-dihydro-4H-thieno[2,3-c]pyrrol-4-one], the IC50 (Colo205 cell line) is reported as ≤ 500 nM and the IC50 (human ERK2) is reported as ≤ 10 nM.

For `CC(c1nc(C(F)(F)F)cs1)N1C(=O)c2cc(-c3ccnc(Nc4ccnn4C)n3)sc2C1(C)C` (racemic) [Example 10, 6,6-dimethyl-2-(2-(1-methyl-1H-pyrazol-5-ylamino)pyrimidin-4-yl)-5-(1-(4-(trifluoromethyl)thiazol-2-yl)ethyl)-5,6-dihydro-4H-thieno[2,3-c]pyrrol-4-one], the IC50 (Colo205 cell line) was ≤ 500 nM and the IC50 (human ERK2) was ≤ 10 nM.

For `Cn1nccc1Nc1nccc(-c2cc3c(s2)C(C)(C)N(Cc2ccc(C(F)(F)F)nc2)C3=O)n1` [Example 4, 6,6-dimethyl-2-(2-((1-methyl-1H-pyrazol-5-yl)amino)pyrimidin-4-yl)-5-((6-(trifluoromethyl)pyridin-3-yl)methyl)-5,6-dihydro-4H-thieno[2,3-c]pyrrol-4-one], the IC50 (Colo205 cell line) was 500 to 1000 nM and the IC50 (human ERK2) was ≤ 10 nM.

With `CC(c1ccnc(C(F)(F)F)c1)N1C(=O)c2cc(-c3ccnc(Nc4ccnn4C)n3)sc2C1(C)C` (racemic) [Example 9, 6,6-dimethyl-2-(2-(1-methyl-1H-pyrazol-5-ylamino)pyrimidin-4-yl)-5-(1-(2-(trifluoromethyl)pyridin-4-yl)ethyl)-5,6-dihydro-4H-thieno[2,3-c]pyrrol-4-one] the IC50 (Colo205 cell line) was ≤ 500 nM and the IC50 (human ERK2) was ≤ 10 nM.

For `Cn1nccc1Nc1nccc(-c2cc3c(s2)C(C)(C)N(Cc2cc(C(F)(F)F)no2)C3=O)n1` [Example 7, 6,6-dimethyl-2-(2-((1-methyl-1H-pyrazol-5-yl)amino)pyrimidin-4-yl)-5-((3-(trifluoromethyl)isoxazol-5-yl)methyl)-5,6-dihydro-4H-thieno[2,3-c]pyrrol-4-one], the IC50 (Colo205 cell line) was ≤ 500 nM and the IC50 (human ERK2) was ≤ 10 nM.

`CC(C(=O)N[C@H](CO)c1cccc(Cl)c1)N1C(=O)c2cc(-c3ccnc(Nc4ccnn4C)n3)sc2C1(C)C` (stereo partly drawn) [Example 15, N—((S)-1-(3-chlorophenyl)-2-hydroxyethyl)-2-(6,6-dimethyl-2-(2-((1-methyl-1H-pyrazol-5-yl)amino)pyrimidin-4-yl)-4-oxo-4H-thieno[2,3-c]pyrrol-5(6H)-yl)propanamide] gave an IC50 (Colo205 cell line) of 500 to 1000 nM.

Reference: patent US12133841B2, “Heterocyclic compounds as kinase inhibitors, compositions comprising the heterocyclic compound, and methods of use thereof” (JS INNOMED HOLDINGS LTD., priority 2018, dated 2024)
